According to PubChem BioAssay AID330 (DTP/NCI, 2004):
Values joined by “and” are separate entries in the source; they are usually repeats but may differ in a detail not shown here. Equal entries are not always repeated. Inconclusive results and toxic doses are left out. How the source made its calls: active means survival T/C of 150% or more; inactive means T/C below 125% in these data.

System: P388 leukemia ip, CD2F1 mice, survival T/C
Test: NCI In Vivo Anticancer Drug Screen. Data for tumor model P388 Leukemia (intraperitoneal) in CD2F1 (CDF1) mice
Details: endpoint: median survival time, higher = longer survival
Method in brief: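 Mice carrying the transplanted tumor received test compound or vehicle. Survival was recorded in each group, and the value is the treated-group measurement divided by that of the vehicle-treated control group.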

Measured: T/C

O=C1OC(C(O)CO)C(O)=C1O (stereo unspecified)
inactive: dose: 0.05 mg/kg/injection, schedule: Q01DX005 (iv), vehicle: saline 108 % of control | dose: 0.05 mg/kg/injection, schedule: Q01DX009 (im), vehicle: saline 100 % of control | dose: 0.05 mg/kg/injection, schedule: Q01DX009 (oral), vehicle: saline 100 % of control | dose: 0.1 mg/kg/injection, schedule: Q01DX005 (iv), vehicle: saline 117 % of control | dose: 0.1 mg/kg/injection, schedule: Q01DX009 (im), vehicle: saline 100 % of control | dose: 0.1 mg/kg/injection, schedule: Q01DX009 (oral), vehicle: saline 100 % of control and 104 % of control | dose: 0.1 mg/kg/injection, schedule: Q01DX009 (sc), vehicle: saline 109 % of control | dose: 0.1 mg/kg/injection, schedule: Q08HX010 (ip), vehicle: saline 99 % of control | dose: 0.2 mg/kg/injection, schedule: Q01DX005 (iv), vehicle: saline 104 % of control | dose: 0.2 mg/kg/injection, schedule: Q01DX009 (im), vehicle: saline 100 % of control | dose: 0.2 mg/kg/injection, schedule: Q01DX009 (oral), vehicle: saline 100 % of control | dose: 0.2 mg/kg/injection, schedule: Q01DX009 (sc), vehicle: saline 109 % of control | dose: 0.2 mg/kg/injection, schedule: Q08HX010 (ip), vehicle: saline 99 % of control | dose: 0.39 mg/kg/injection, schedule: Q01DX005 (iv), vehicle: saline 113 % of control | dose: 0.39 mg/kg/injection, schedule: Q01DX009 (im), vehicle: saline 104 % of control | dose: 0.39 mg/kg/injection, schedule: Q01DX009 (oral), vehicle: saline 100 % of control and 108 % of control | dose: 0.39 mg/kg/injection, schedule: Q01DX009 (sc), vehicle: saline 100 % of control | dose: 0.4 mg/kg/injection, schedule: Q08HX010 (ip), vehicle: saline 99 % of control | dose: 0.78 mg/kg/injection, schedule: Q01DX005 (iv), vehicle: saline 104 % of control | dose: 0.78 mg/kg/injection, schedule: Q01DX009 (im), vehicle: saline 104 % of control | dose: 0.78 mg/kg/injection, schedule: Q01DX009 (oral), vehicle: saline 100 % of control and 95 % of control | dose: 0.78 mg/kg/injection, schedule: Q01DX009 (sc), vehicle: saline 109 % of control | dose: 1.56 mg/kg/injection, schedule: Q01DX005 (iv), vehicle: saline 104 % of control | dose: 1.56 mg/kg/injection, schedule: Q01DX009 (im), vehicle: saline 100 % of control | dose: 1.56 mg/kg/injection, schedule: Q01DX009 (oral), vehicle: saline 100 % of control and 104 % of control | dose: 1.56 mg/kg/injection, schedule: Q01DX009 (sc), vehicle: saline 100 % of control | dose: 3.13 mg/kg/injection, schedule: Q01DX005 (iv), vehicle: saline 104 % of control | dose: 3.13 mg/kg/injection, schedule: Q01DX009 (im), vehicle: saline 104 % of control | dose: 3.13 mg/kg/injection, schedule: Q01DX009 (oral), vehicle: saline 100 % of control and 116 % of control | dose: 3.13 mg/kg/injection, schedule: Q01DX009 (sc), vehicle: saline 100 % of control | dose: 6.25 mg/kg/injection, schedule: Q01DX005 (iv), vehicle: saline 104 % of control | dose: 6.25 mg/kg/injection, schedule: Q01DX009 (im), vehicle: saline 104 % of control | dose: 6.25 mg/kg/injection, schedule: Q01DX009 (oral), vehicle: saline 100 % of control and 112 % of control | dose: 6.25 mg/kg/injection, schedule: Q01DX009 (sc), vehicle: saline 95 % of control | dose: 10.0 mg/kg/injection, schedule: Q01DX005 (ip), vehicle: saline 100 % of control | dose: 12.5 mg/kg/injection, schedule: Q01DX005 (iv), vehicle: saline 104 % of control | dose: 12.5 mg/kg/injection, schedule: Q01DX009 (im), vehicle: saline 109 % of control | dose: 12.5 mg/kg/injection, schedule: Q01DX009 (oral), vehicle: saline 100 % of control and 108 % of control | dose: 12.5 mg/kg/injection, schedule: Q01DX009 (sc), vehicle: saline 104 % of control | dose: 20.0 mg/kg/injection, schedule: Q01DX005 (ip), vehicle: saline 100 % of control | dose: 25.0 mg/kg/injection, schedule: Q01DX005 (iv), vehicle: saline 104 % of control | dose: 25.0 mg/kg/injection, schedule: Q01DX009 (im), vehicle: saline 100 % of control | dose: 25.0 mg/kg/injection, schedule: Q01DX009 (oral), vehicle: saline 100 % of control and 104 % of control | dose: 25.0 mg/kg/injection, schedule: Q01DX009 (sc), vehicle: saline 100 % of control | dose: 40.0 mg/kg/injection, schedule: Q01DX005 (ip), vehicle: saline 103 % of control | dose: 50.0 mg/kg/injection, schedule: Q01DX005 (iv), vehicle: saline 117 % of control | dose: 50.0 mg/kg/injection, schedule: Q01DX009 (im), vehicle: saline 109 % of control | dose: 50.0 mg/kg/injection, schedule: Q01DX009 (oral), vehicle: saline 100 % of control and 108 % of control | dose: 50.0 mg/kg/injection, schedule: Q01DX009 (sc), vehicle: saline 100 % of control | dose: 60.0 mg/kg/injection, schedule: Q01DX005 (ip), vehicle: saline 100 % of control | dose: 100.0 mg/kg/injection, schedule: Q01DX005 (iv), vehicle: saline 100 % of control | dose: 100.0 mg/kg/injection, schedule: Q01DX009 (im), vehicle: saline 104 % of control | dose: 100.0 mg/kg/injection, schedule: Q01DX009 (oral), vehicle: saline 100 % of control | dose: 100.0 mg/kg/injection, schedule: Q01DX009 (sc), vehicle: saline 100 % of control | dose: 120.0 mg/kg/injection, schedule: Q01DX005 (ip), vehicle: saline 102 % of control | dose: 200.0 mg/kg/injection, schedule: Q01DX005 (iv), vehicle: saline 104 % of control | dose: 200.0 mg/kg/injection, schedule: Q01DX009 (im), vehicle: saline 104 % of control | dose: 200.0 mg/kg/injection, schedule: Q01DX009 (oral), vehicle: saline 100 % of control and 104 % of control | dose: 200.0 mg/kg/injection, schedule: Q01DX009 (sc), vehicle: saline 90 % of control | dose: 250.0 mg/kg/injection, schedule: Q01DX005 (ip), vehicle: saline 86 % of control | dose: 300.0 mg/kg/injection, schedule: Q08HX010 (ip), vehicle: saline 99 % of control | dose: 400.0 mg/kg/injection, schedule: Q01DX005 (iv), vehicle: saline 100 % of control | dose: 400.0 mg/kg/injection, schedule: Q01DX009 (im), vehicle: saline 100 % of control | dose: 400.0 mg/kg/injection, schedule: Q01DX009 (ip), vehicle: saline 110 % of control and 77 % of control | dose: 400.0 mg/kg/injection, schedule: Q01DX009 (oral), vehicle: saline 108 % of control and 95 % of control | dose: 400.0 mg/kg/injection, schedule: Q01DX009 (sc), vehicle: saline 104 % of control | dose: 500.0 mg/kg/injection, schedule: Q01DX005 (ip), vehicle: saline 86 % of control | dose: 600.0 mg/kg/injection, schedule: Q08HX010 (ip), vehicle: saline 102 % of control and 94 % of control | dose: 800.0 mg/kg/injection, schedule: Q01DX009 (im), vehicle: saline 100 % of control | dose: 800.0 mg/kg/injection, schedule: Q01DX009 (ip), vehicle: saline 99 % of control and 94 % of control | dose: 800.0 mg/kg/injection, schedule: Q01DX009 (oral), vehicle: saline 100 % of control and 108 % of control | dose: 800.0 mg/kg/injection, schedule: Q01DX009 (sc), vehicle: saline 95 % of control | dose: 1000.0 mg/kg/injection, schedule: Q01DX005 (ip), vehicle: saline 87 % of control | dose: 1200.0 mg/kg/injection, schedule: Q01DX009 (ip), vehicle: saline 110 % of control | dose: 1200.0 mg/kg/injection, schedule: Q08HX010 (ip), vehicle: saline 101 % of control and 94 % of control | dose: 1600.0 mg/kg/injection, schedule: Q01DX009 (im), vehicle: saline 100 % of control | dose: 1600.0 mg/kg/injection, schedule: Q01DX009 (ip), vehicle: saline 102 % of control and 61 % of control | dose: 1600.0 mg/kg/injection, schedule: Q01DX009 (oral), vehicle: saline 100 % of control and 91 % of control | dose: 1600.0 mg/kg/injection, schedule: Q01DX009 (sc), vehicle: saline 104 % of control

NC(=O)n1ncnc1N
inactive: dose: 50.0 mg/kg/injection, schedule: Q01DX005 (ip), vehicle: saline 95 % of control | dose: 50.0 mg/kg/injection, schedule: Q01DX009 (ip), vehicle: saline with Tween-80 107 % of control | dose: 100.0 mg/kg/injection, schedule: Q01DX005 (ip), vehicle: saline 100 % of control | dose: 100.0 mg/kg/injection, schedule: Q01DX009 (ip), vehicle: saline with Tween-80 102 % of control | dose: 200.0 mg/kg/injection, schedule: Q01DX005 (ip), vehicle: saline 102 % of control | dose: 200.0 mg/kg/injection, schedule: Q01DX009 (ip), vehicle: saline with Tween-80 100 % of control | dose: 400.0 mg/kg/injection, schedule: Q01DX009 (ip), vehicle: saline with Tween-80 117 % of control
